Consider three compounds from article PMC9322164, “Novel Neuroprotective Potential of Bunchosia armeniaca (Cav.) DC against Lipopolysaccharide Induced Alzheimer’s Disease in Mice” (Plants, 2022).

Assay [1] can be described thus: DPPH radical scavenging assay. Particulars: mean ± SD, n = 6.
The nature of assay [2]: ABTS cation radical decolorization assay. The settings on record: mean ± SD, n = 6.
Assay [3] in a line: Ferric reducing antioxidant power (FRAP) assay. Particulars: mean ± SD, n = 6. On the procedure:
Natural products’ ability to reduce metals is regarded as a key marker of their antioxidant properties. Spectroscopically, the quantity of ferric (Fe^3+) complex conversion to ferrous (Fe^2+) form is detected by the color change of the solution based on the compound’s ability for reduction. The increased reduction capability of the studied sample is shown by the higher absorbance of the reaction mixture. FRAP values of B. armeniaca extract and its fractions were recorded in (Table 2) and expressed as EC50 (µg/mL).
The FRAP technique was carried out in microplates with slight modifications as described by. Briefly, a fresh FRAP solution was prepared shortly before the reaction in a 10:1:1 v/v/v ratio, consisting of acetate buffer (300 mM, PH = 3.6), tripyridyltriazine (TPTZ, 10 mM) in HCl (40 mM), and FeCl3 (20 mM), respectively. […] The FRAP test measured the absorbance change generated by electron-donating antioxidants converting a colorless oxidized Fe^+3-TPTZ complex to a blue-colored Fe^+2 molecule in acidic conditions. Data are represented as mean ± SD.
FRAP assay data were determined by Microsoft Excel®. […] AChE inhibition activity was performed in triplicate. […] The difference was considered significant when p < 0.05.

Details of assay [4]: method as in earlier work. The settings on record: previous research ref 5; cited from earlier work.
For the next assay, the system named is CYP2E1. The assay can be described thus: Brain content of CYP2E1 (ELISA) in LPS-induced Alzheimer in mice. It is filed as in vivo. Particulars: LPS 250 µg/kg/day IP 7 days; compared to normal control. Here is the method:
(§1) Firstly, mice were anesthetized using an IP injection of ketamine at a dose of 80–100 mg/kg. After they achieved a deep anesthetic state, mice were sacrificed by decapitation. Each mouse’s brain was promptly dissected and washed with phosphate-buffered saline (PBS) to eliminate extra blood. Weighed pieces were homogenized in PBS with the MPW-120 homogenizer, Med Instruments, Poland, to obtain a 20% homogenate, then they were kept overnight at −20 °C. […] The supernatant was removed immediately and assayed for brain contents of NF-κB, IL-1β, CYP2E1, and GFAP. They were determined using an ELISA kit (SunLong Biotec Co., Ltd., Hangzhou, China).
(§2) Standards and samples were added to wells containing immobilized antibodies specific for […] NF-κB, IL-1β, CYP2E1, and GFAP and kept for 30 min of incubation at 37 °C. After washing, horseradish peroxidase-conjugated streptavidin was added to the wells, kept for 30 min of incubation at 37 °C, and then washed for a second time. The wells were filled with tetramethylbenzidine (TMB) substrate solution and kept for 15 min of incubation at 37 °C; a color was produced in proportion to the quantity of NF-κB, IL-1β, CYP2E1, and GFAP bound. A stop solution was added to the wells to terminate the color development, and color intensity was detected at 450 nm after 10 min [130].
A general note: An ELISA detects its analyte on a solid surface through an enzyme-linked reagent.

Another assay has as its system GFAP. The assay can be described thus: Brain content of GFAP (ELISA) in LPS-induced Alzheimer in mice. It is filed as in vivo. The settings on record: LPS 250 µg/kg/day IP 7 days; compared to normal control. On the procedure: as §1, §2
The subject of another assay is IL-1β. The assay can be described thus: Brain content of IL-1β (ELISA) in LPS-induced Alzheimer in mice. The format is in vivo. The settings on record: LPS 250 µg/kg/day IP 7 days; compared to normal control. On the procedure:
as §1, §2

A further assay concerns NF-κB. In words: Brain content of NF-κB (ELISA) in LPS-induced Alzheimer in mice. The format is in vivo. The settings on record: LPS 250 µg/kg/day IP 7 days; compared to normal control. Here is the method: as §1, §2
Assay [5] has as its system LPS-induced Alzheimer in mice. The assay can be described thus: Y maze spontaneous alternation test in LPS-induced Alzheimer in mice. The format is in vivo. The settings on record: LPS 250 µg/kg/day IP 7 days; compared to normal control. Here is the method: Fifty male Swiss mice weighing 20–35 gm were chosen for the investigation. They were held in filter-top plastic cages under hygienic conditions, with 12-h light and 12-hour dark cycles and 50% humidity at 28 °C. Unnecessary disturbance of animals was avoided. Squeezing, pressure, and abrasive maneuvers were avoided when dealing with the animals. Throughout the experiment, mice were fed a standard pellet meal, and water was allowed ad libitum. The laboratory animal experiments were conducted to comply with the recommendations of the Guide for the Care and Use of Laboratory Animals of the National Research Centre, Egypt, and the National Institutes of Health (NIH No. 85:23 revised 1985) in accordance with the guidelines provided by the CPCSEA and the World Medical Association Declaration of Helsinki on Ethical Principles for Studies Involving Experimental Animals. […]
Y maze spontaneous alternation test was performed 24 h after the last treatment dose, according to [126]. […] One day later, the mouse was allowed eight minutes of movements while its motion was recorded. The letter of the mouse was recorded down every time it entered an arm with all of its limbs inside. […] The alternation percentage was determined using the formula below: Number of alternations/(Total arm entries −2) ∗ 100

A further assay concerns mice brain. The assay can be described thus: Histopathological examination of mice brain (H&E). The format is in vivo. The settings on record: LPS model, extracts 200 mg/kg/day oral 7 days. Here is the method: Autopsy specimens were obtained from mice brains, divided into several groups and preserved in 10% formol saline for a day. Subsequently, rinsing with tap water, dehydration was achieved by alcohol serial dilutions (methyl, ethyl, and absolute ethyl alcohol). Samples were cleaned with xylene and immersed in paraffin for a day at 56 °C in a hot air oven. Paraffin beeswax tissue blocks were made using a sledge microtome and sectioned at a thickness of […].

Regarding `Cc1c(C)c2c(c(C)c1O)CCC(C)(C(=O)O)O2` (centres unmarked) [Trolox], in assay [1], the “DPPH Assay IC50” value amounted to 24.42 ± 0.87 µg/mL. Moreover, the “ABTS Assay IC50” value in [2] stood at 22.56 ± 0.78 µg/mL. For the same compound, the “FRAP Assay EC50” value in assay [3] is on record as 96.97 ± 2.73 µg/mL.
`O=C(O)c1cc(O)c(O)c(O)c1` [gallic acid]: in [4], the “DPPH IC50” value is 3.6 µg/mL.
In the case of Lipopolysaccharide [LPS], the “elevation of CYP2E1 brain content” value in the assay on CYP2E1 came to 235%. Moreover, the “elevation of GFAP brain expression” value in the assay on GFAP is given as 276%. The “increase of IL-1β in the brain” value with IL-1β amounted to 193%. For the same compound, the “increase of NF-κB in the brain” value in the assay with NF-κB is recorded as 309%. Further, the “decrease of Y-maze alteration” value in [5] turned out to be 58%. In the assay with mice brain, the histopathology of cerebellum entry is “normal histological findings”; the “histopathology of cerebral cortex” value was “nuclear pyknosis and neuronal degeneration with focal gliosis”; the “histopathology of fascia dentata and hilus in the hippocampus” value is recorded as “nuclear pyknosis with degeneration”; the “histopathology of hippocampus subiculum” value was “nuclear pyknosis and degeneration in some neurons”. Besides, the histopathology of striatum result with mice brain is “multiple focal eosinophilic plagues formation”.
